System: Kv3.1 α-subunit mRNA
Experiment: Experiment 1: in situ hybridization of Kv3.1 α-subunit mRNA in brain, chronic PCP rat model of schizophrenia with antipsychotic co-treatment
Type: in vivo

**Q.** For `CN1CCN(C2=Nc3ccc(F)cc3Nc3sc4ccccc4c32)CC1.O=C(O)/C=C\C(=O)O` [Y-931, 8-fluoro-12-(4-methylpiperazin-1-yl)-6H-[l]benzothieno[2,3-b][1,5]benzo-diazepine monomaleate], which “Kv3.1 α-subunit mRNA expression” value (ACg, PCP + drug 0.3 mg/kg/day) is on record?
**A.** The value was 15.36 ± 0.29 PSL/mm^2.

**Q.** And the “Kv3.1 α-subunit mRNA expression” value (ACg, PCP + drug 1 mg/kg/day)?
**A.** Its value is 15.10 ± 0.92 PSL/mm^2.

**Q.** And the “Kv3.1 α-subunit mRNA expression” value (ACg, PCP + drug 3 mg/kg/day)?
**A.** The value was 15.40 ± 0.83 PSL/mm^2.

**Q.** What about the “Kv3.1 α-subunit mRNA expression” value (ACg, PCP + drug 10 mg/kg/day) of the same molecule?
**A.** Its value is 14.82 ± 0.74 PSL/mm^2.

**Q.** What about the “Kv3.1 α-subunit mRNA expression” value (AcbC, PCP + drug 0.3 mg/kg/day) of the same molecule?
**A.** Its value is 7.65 ± 0.40 PSL/mm^2.

**Q.** And the “Kv3.1 α-subunit mRNA expression” value (AcbC, PCP + drug 1 mg/kg/day)?
**A.** The value was 8.40 ± 0.63 PSL/mm^2.

**Q.** What about the “Kv3.1 α-subunit mRNA expression” value (AcbC, PCP + drug 3 mg/kg/day) of the same molecule?
**A.** The value was 8.44 ± 0.43 PSL/mm^2.

**Q.** And the “Kv3.1 α-subunit mRNA expression” value (AcbC, PCP + drug 10 mg/kg/day)?
**A.** Its value is 8.42 ± 0.53 PSL/mm^2.

**Q.** What about the “Kv3.1 α-subunit mRNA expression” value (AcbS, PCP + drug 0.3 mg/kg/day) of the same molecule?
**A.** Its value is 10.24 ± 0.64 PSL/mm^2.

**Q.** And the “Kv3.1 α-subunit mRNA expression” value (AcbS, PCP + drug 1 mg/kg/day)?
**A.** The value was 11.55 ± 0.50 PSL/mm^2.

**Q.** What about the “Kv3.1 α-subunit mRNA expression” value (AcbS, PCP + drug 3 mg/kg/day) of the same molecule?
**A.** The value was 11.11 ± 0.27 PSL/mm^2.

**Q.** What about the “Kv3.1 α-subunit mRNA expression” value (AcbS, PCP + drug 10 mg/kg/day) of the same molecule?
**A.** Its value is 11.26 ± 0.67 PSL/mm^2.

**Q.** What about the “Kv3.1 α-subunit mRNA expression” value (Au1, PCP + drug 0.3 mg/kg/day) of the same molecule?
**A.** The value was 17.02 ± 1.26 PSL/mm^2.

**Q.** And the “Kv3.1 α-subunit mRNA expression” value (Au1, PCP + drug 1 mg/kg/day)?
**A.** The value was 18.48 ± 1.36 PSL/mm^2.

**Q.** What about the “Kv3.1 α-subunit mRNA expression” value (Au1, PCP + drug 3 mg/kg/day) of the same molecule?
**A.** Its value is 16.76 ± 0.32 PSL/mm^2.

**Q.** And the “Kv3.1 α-subunit mRNA expression” value (Au1, PCP + drug 10 mg/kg/day)?
**A.** The value was 17.98 ± 0.68 PSL/mm^2.

**Q.** And the “Kv3.1 α-subunit mRNA expression” value (CA1pd, PCP + drug 0.3 mg/kg/day)?
**A.** The value was 16.80 ± 1.23 PSL/mm^2.

**Q.** And the “Kv3.1 α-subunit mRNA expression” value (CA1pd, PCP + drug 1 mg/kg/day)?
**A.** The value was 18.34 ± 0.91 PSL/mm^2.

**Q.** And the “Kv3.1 α-subunit mRNA expression” value (CA1pd, PCP + drug 3 mg/kg/day)?
**A.** Its value is 16.47 ± 0.98 PSL/mm^2.

**Q.** And the “Kv3.1 α-subunit mRNA expression” value (CA1pd, PCP + drug 10 mg/kg/day)?
**A.** The value was 19.18 ± 2.03 PSL/mm^2.

**Q.** What about the “Kv3.1 α-subunit mRNA expression” value (CA2pd, PCP + drug 0.3 mg/kg/day) of the same molecule?
**A.** Its value is 24.07 ± 1.74 PSL/mm^2.

**Q.** What about the “Kv3.1 α-subunit mRNA expression” value (CA2pd, PCP + drug 1 mg/kg/day) of the same molecule?
**A.** The value was 20.07 ± 1.71 PSL/mm^2.

**Q.** What about the “Kv3.1 α-subunit mRNA expression” value (CA2pd, PCP + drug 3 mg/kg/day) of the same molecule?
**A.** The value was 21.47 ± 2.23 PSL/mm^2.

**Q.** And the “Kv3.1 α-subunit mRNA expression” value (CA2pd, PCP + drug 10 mg/kg/day)?
**A.** Its value is 22.31 ± 1.57 PSL/mm^2.

**Q.** And the “Kv3.1 α-subunit mRNA expression” value (CA3pd, PCP + drug 0.3 mg/kg/day)?
**A.** The value was 34.10 ± 1.52 PSL/mm^2.

**Q.** What about the “Kv3.1 α-subunit mRNA expression” value (CA3pd, PCP + drug 1 mg/kg/day) of the same molecule?
**A.** The value was 33.99 ± 3.29 PSL/mm^2.

**Q.** And the “Kv3.1 α-subunit mRNA expression” value (CA3pd, PCP + drug 3 mg/kg/day)?
**A.** Its value is 34.72 ± 1.24 PSL/mm^2.

**Q.** And the “Kv3.1 α-subunit mRNA expression” value (CA3pd, PCP + drug 10 mg/kg/day)?
**A.** The value was 33.90 ± 2.52 PSL/mm^2.

**Q.** And the “Kv3.1 α-subunit mRNA expression” value (DGgd, PCP + drug 0.3 mg/kg/day)?
**A.** Its value is 38.38 ± 1.53 PSL/mm^2.

**Q.** What about the “Kv3.1 α-subunit mRNA expression” value (DGgd, PCP + drug 1 mg/kg/day) of the same molecule?
**A.** The value was 39.21 ± 1.75 PSL/mm^2.

**Q.** What about the “Kv3.1 α-subunit mRNA expression” value (DGgd, PCP + drug 3 mg/kg/day) of the same molecule?
**A.** The value was 36.93 ± 2.53 PSL/mm^2.

**Q.** What about the “Kv3.1 α-subunit mRNA expression” value (DGgd, PCP + drug 10 mg/kg/day) of the same molecule?
**A.** The value was 36.11 ± 2.06 PSL/mm^2.

**Q.** And the “Kv3.1 α-subunit mRNA expression” value (DLStr, PCP + drug 0.3 mg/kg/day)?
**A.** The value was 6.55 ± 0.53 PSL/mm^2.

**Q.** What about the “Kv3.1 α-subunit mRNA expression” value (DLStr, PCP + drug 1 mg/kg/day) of the same molecule?
**A.** The value was 5.99 ± 0.96 PSL/mm^2.

**Q.** What about the “Kv3.1 α-subunit mRNA expression” value (DLStr, PCP + drug 3 mg/kg/day) of the same molecule?
**A.** The value was 7.13 ± 0.70 PSL/mm^2.

**Q.** And the “Kv3.1 α-subunit mRNA expression” value (DLStr, PCP + drug 10 mg/kg/day)?
**A.** Its value is 7.46 ± 0.86 PSL/mm^2.

**Q.** What about the “Kv3.1 α-subunit mRNA expression” value (IL, PCP + drug 0.3 mg/kg/day) of the same molecule?
**A.** Its value is 11.64 ± 0.40 PSL/mm^2.

**Q.** And the “Kv3.1 α-subunit mRNA expression” value (IL, PCP + drug 1 mg/kg/day)?
**A.** Its value is 11.33 ± 0.60 PSL/mm^2.

**Q.** And the “Kv3.1 α-subunit mRNA expression” value (IL, PCP + drug 3 mg/kg/day)?
**A.** The value was 12.91 ± 0.38 PSL/mm^2.

**Q.** And the “Kv3.1 α-subunit mRNA expression” value (IL, PCP + drug 10 mg/kg/day)?
**A.** Its value is 11.55 ± 0.45 PSL/mm^2.

**Q.** What about the “Kv3.1 α-subunit mRNA expression” value (IO, PCP + drug 0.3 mg/kg/day) of the same molecule?
**A.** Its value is 17.52 ± 0.95 PSL/mm^2.

**Q.** What about the “Kv3.1 α-subunit mRNA expression” value (IO, PCP + drug 1 mg/kg/day) of the same molecule?
**A.** Its value is 15.49 ± 0.30 PSL/mm^2.

**Q.** And the “Kv3.1 α-subunit mRNA expression” value (IO, PCP + drug 3 mg/kg/day)?
**A.** The value was 17.52 ± 0.36 PSL/mm^2.

**Q.** And the “Kv3.1 α-subunit mRNA expression” value (IO, PCP + drug 10 mg/kg/day)?
**A.** The value was 15.30 ± 0.62 PSL/mm^2.

**Q.** And the “Kv3.1 α-subunit mRNA expression” value (M1, PCP + drug 0.3 mg/kg/day)?
**A.** Its value is 15.33 ± 0.38 PSL/mm^2.

**Q.** What about the “Kv3.1 α-subunit mRNA expression” value (M1, PCP + drug 1 mg/kg/day) of the same molecule?
**A.** The value was 14.81 ± 0.80 PSL/mm^2.

**Q.** What about the “Kv3.1 α-subunit mRNA expression” value (M1, PCP + drug 3 mg/kg/day) of the same molecule?
**A.** Its value is 17.01 ± 0.75 PSL/mm^2.

**Q.** And the “Kv3.1 α-subunit mRNA expression” value (M1, PCP + drug 10 mg/kg/day)?
**A.** The value was 16.51 ± 0.67 PSL/mm^2.

**Q.** And the “Kv3.1 α-subunit mRNA expression” value (M2, PCP + drug 0.3 mg/kg/day)?
**A.** The value was 13.23 ± 0.29 PSL/mm^2.

Reference: US20030224416A1, “Schizophrenia related gene” (priority 2002, published 2003)
